Source: PubChem BioAssay AID1259407 (Chemical Carcinogenesis Research Information System (CCRIS), 2018)
Calls of active or inactive are those of the source. No rule for the calls is given here.

System: CCRIS mutagenicity, Ames/micronucleus/aberration tests
Experiment: CCRIS mutagenicity studies
[1] = Test System: AMES SALMONELLA TYPHIMURIUM, Strain/Indicator: TA98, Metabolic Activation: NONE, Method: PREINCUBATION
[2] = Test System: AMES SALMONELLA TYPHIMURIUM, Strain/Indicator: TA100, Metabolic Activation: NONE, Method: PREINCUBATION

**Q.** What does the source list for `CN(CCC#N)c1ccc(N=Nc2ccc3ncsc3c2)cc1`?
**A.** mutagenic call (Test System: AMES SALMONELLA TYPHIMURIUM, Strain/Indicator: TA98, Metabolic Activation: RAT, LIVER, S-9, AROCLOR, Method: PREINCUBATION): active; positive; mutagenic call (Test System: AMES SALMONELLA TYPHIMURIUM, Strain/Indicator: TA98, Metabolic Activation: RAT, LIVER, S-9, AROCLOR, Method: STANDARD PLATE): active; positive

**Q.** For `O=C1c2ccccc2C(=O)c2cc(CO)ccc21`, which mutagenic call [1] is on record?
**A.** The mutagenic call was “inactive; negative”.

**Q.** And the mutagenic call (Test System: AMES SALMONELLA TYPHIMURIUM, Strain/Indicator: TA98, Metabolic Activation: RAT, LIVER, S-9, PCB, Method: PREINCUBATION)?
**A.** The mutagenic call was “inactive; negative”.

**Q.** What about the mutagenic call [2] of the same molecule?
**A.** Its mutagenic call is “inactive; negative”.

**Q.** What about the mutagenic call (Test System: AMES SALMONELLA TYPHIMURIUM, Strain/Indicator: TA100, Metabolic Activation: RAT, LIVER, S-9, PCB, Method: PREINCUBATION) of the same molecule?
**A.** The mutagenic call was “inactive; negative”.

**Q.** What about the mutagenic call (Test System: UDS RODENT HEPATOCYTES, Strain/Indicator: THY INCORP (NON-S-PHASE), Metabolic Activation: NONE, Method: AUTORADIOGRAPHY) of the same molecule?
**A.** Its mutagenic call is “inactive; negative”.

**Q.** What about the mutagenic call (Test System: UDS RODENT HEPATOCYTES, Strain/Indicator: THY INCORP (NON-S-PHASE), Metabolic Activation: PHENOBARBITAL, Method: AUTORADIOGRAPHY) of the same molecule?
**A.** Its mutagenic call is “active; positive”.

**Q.** How did the mutagenic call (Test System: AMES SALMONELLA TYPHIMURIUM, Strain/Indicator: TA97, Metabolic Activation: HAMSTER, LIVER, S-9, AROCLOR 1254 (10 OR 30%), Method: PREINCUBATION) turn out when `CCC(C)C(C)CO` (centres undefined) was run?
**A.** Its mutagenic call is “inactive; negative”.

**Q.** What about the mutagenic call (Test System: AMES SALMONELLA TYPHIMURIUM, Strain/Indicator: TA97, Metabolic Activation: NONE, Method: PREINCUBATION) of the same molecule?
**A.** The mutagenic call was “inactive; negative”.

**Q.** What about the mutagenic call (Test System: AMES SALMONELLA TYPHIMURIUM, Strain/Indicator: TA97, Metabolic Activation: RAT, LIVER, S-9, AROCLOR 1254 (10%), Method: PREINCUBATION) of the same molecule?
**A.** The mutagenic call was “inactive; negative”.

**Q.** And the mutagenic call (Test System: AMES SALMONELLA TYPHIMURIUM, Strain/Indicator: TA97, Metabolic Activation: RAT, LIVER, S-9, AROCLOR 1254 (30%), Method: PREINCUBATION)?
**A.** The mutagenic call was “inactive; negative”.

**Q.** What about the mutagenic call (Test System: AMES SALMONELLA TYPHIMURIUM, Strain/Indicator: TA98, Metabolic Activation: HAMSTER, LIVER, S-9, AROCLOR 1254 (10 OR 30%), Method: PREINCUBATION) of the same molecule?
**A.** Its mutagenic call is “inactive; negative”.

**Q.** What about the mutagenic call [1] of the same molecule?
**A.** The mutagenic call was “inactive; negative”.

**Q.** And the mutagenic call (Test System: AMES SALMONELLA TYPHIMURIUM, Strain/Indicator: TA98, Metabolic Activation: RAT, LIVER, S-9, AROCLOR 1254 (10%), Method: PREINCUBATION)?
**A.** The mutagenic call was “inactive; negative”.

**Q.** What about the mutagenic call (Test System: AMES SALMONELLA TYPHIMURIUM, Strain/Indicator: TA98, Metabolic Activation: RAT, LIVER, S-9, AROCLOR 1254 (30%), Method: PREINCUBATION) of the same molecule?
**A.** The mutagenic call was “inactive; negative”.

**Q.** And the mutagenic call (Test System: AMES SALMONELLA TYPHIMURIUM, Strain/Indicator: TA100, Metabolic Activation: HAMSTER, LIVER, S-9, AROCLOR 1254 (10 OR 30%), Method: PREINCUBATION)?
**A.** The mutagenic call was “inactive; negative”.

**Q.** And the mutagenic call [2]?
**A.** The mutagenic call was “inactive; negative”.

**Q.** What about the mutagenic call (Test System: AMES SALMONELLA TYPHIMURIUM, Strain/Indicator: TA100, Metabolic Activation: RAT, LIVER, S-9, AROCLOR 1254 (10%), Method: PREINCUBATION) of the same molecule?
**A.** Its mutagenic call is “inactive; negative”.

**Q.** What about the mutagenic call (Test System: AMES SALMONELLA TYPHIMURIUM, Strain/Indicator: TA100, Metabolic Activation: RAT, LIVER, S-9, AROCLOR 1254 (30%), Method: PREINCUBATION) of the same molecule?
**A.** The mutagenic call was “inactive; negative”.

**Q.** What about the mutagenic call (Test System: AMES SALMONELLA TYPHIMURIUM, Strain/Indicator: TA1535, Metabolic Activation: HAMSTER, LIVER, S-9, AROCLOR 1254 (10 OR 30%), Method: PREINCUBATION) of the same molecule?
**A.** The mutagenic call was “inactive; negative”.

**Q.** What about the mutagenic call (Test System: AMES SALMONELLA TYPHIMURIUM, Strain/Indicator: TA1535, Metabolic Activation: NONE, Method: PREINCUBATION) of the same molecule?
**A.** The mutagenic call was “inactive; negative”.

**Q.** What about the mutagenic call (Test System: AMES SALMONELLA TYPHIMURIUM, Strain/Indicator: TA1535, Metabolic Activation: RAT, LIVER, S-9, AROCLOR 1254 (10%), Method: PREINCUBATION) of the same molecule?
**A.** The mutagenic call was “inactive; negative”.

**Q.** And the mutagenic call (Test System: AMES SALMONELLA TYPHIMURIUM, Strain/Indicator: TA1535, Metabolic Activation: RAT, LIVER, S-9, AROCLOR 1254 (30%), Method: PREINCUBATION)?
**A.** The mutagenic call was “inactive; negative”.
